Test results as given in patent EP3613735A1, “NOVEL SIRT 1 ACTIVATOR AND MEDICINAL USE THEREOF” (Pusan National University Industry - University Cooperation …, priority 2017, dated 2018).

Key:
CPT1 and ACOX1 = assay: Liver mRNA expression of fat oxidation related genes, quantitative real-time PCR; format: in vivo, mouse; conditions: db/db mice, oral 5 mg/kg daily for 4 weeks, treated vs db/db group
Procedure: (§1) Since obesity and insulin resistance are representative diseases directly related to the development of non-alcoholic fatty liver, the improvement effect of Compound 32u on fatty liver was analyzed. Compound 32u was orally administered to db/db mice (9 weeks old) at a concentration of 5 mg/kg daily for 4 weeks. First, the accumulation of fat in the liver, the most representative phenotype, was measured. Briefly, about 50 mg of liver was quantified in cold phosphate buffered saline (PBS) or 0.9% sodium chloride (NaCl) and crushed, followed by treating with mixed solvent of chloroform and methanol (MeOH) in a volume ratio of 2:1 and reacted for 2 hours. […] Thereafter, the amount of neutral fat was measured by absorbance using a neutral fat measurement kit (Stanbio laboratory, TX USA). In order to confirm the corresponding mechanism, mRNA expression of genes related to fat synthesis and degradation was analyzed. […] For the synthesized cDNA, a quantative real-time polymerase chain reaction (quantative real-time PCR) was performed to target the desired gene as a primer and quantify it in real time. Since obesity and insulin resistance are representative diseases directly related to the development of non-alcoholic fatty liver, the improvement effect of Compound 70c on fatty liver was analyzed. […] First, the accumulation of fat in the liver, the most representative phenotype, was measured. […]

db/db mice [1] = assay: Dietary intake and weight in obese animal model; format: in vivo, mouse; conditions: oral 5 mg/kg daily for 4 weeks, compared to db/db mice group
Procedure: The metabolic disease control ability of Compound 32u was analyzed using db/db mice lacking an appetite-regulating hormone leptin receptor as an obese animal model. Compound 32u was orally administered to db/db mice (9 weeks old) at a concentration of 5 mg/kg daily for 4 weeks. The metabolic disease control ability of Compound 70c was analyzed using db/db mice lacking an appetite-regulating hormone leptin receptor as an obese animal model. Compound 70c was orally administered to db/db mice (9 weeks old) at a concentration of 5 mg/kg daily for 4 weeks.

db/db mice [2] = assay: Glucose tolerance test and fasting blood glucose in obese animal model; format: in vivo, mouse; conditions: for fasting blood glucose: oral 5 mg/kg daily, compared to db/db mouse group; for glucose tolerance (blood glucose concentration): three weeks after oral administration of 5 mg/kg daily, glucose 2 g/kg intraperitoneally after 12 hours fasting
Procedure: The metabolic disease control ability of Compound 32u was analyzed using db/db mice lacking an appetite-regulating hormone leptin receptor as an obese animal model. Compound 32u was orally administered to db/db mice (9 weeks old) at a concentration of 5 mg/kg daily for 4 weeks. Three weeks after oral administration of Compound 32u, a glucose tolerance test was performed. Mice were fasted for 12 hours or more, and glucose (2 g/kg) was injected intraperitoneally, and blood from the tail of the mouse was measured for blood glucose at each time using a glucometer ([…]). The metabolic disease control ability of Compound 70c was analyzed using db/db mice lacking an appetite-regulating hormone leptin receptor as an obese animal model. Compound 70c was orally administered to db/db mice (9 weeks old) at a concentration of 5 mg/kg daily for 4 weeks. Three weeks after oral administration of Compound 70c, a glucose tolerance test was performed. Mice were fasted for 12 hours or more, and glucose (2 g/kg) was injected intraperitoneally, and blood from the tail of the mouse was measured for blood glucose at each time using a glucometer ([…]).

db/db mice [3] = assay: Neutral fat in the liver (fatty liver) in obese animal model; format: in vivo, mouse; conditions: oral 5 mg/kg daily for 4 weeks
Procedure: Since obesity and insulin resistance are representative diseases directly related to the development of non-alcoholic fatty liver, the improvement effect of Compound 32u on fatty liver was analyzed. Compound 32u was orally administered to db/db mice (9 weeks old) at a concentration of 5 mg/kg daily for 4 weeks. First, the accumulation of fat in the liver, the most representative phenotype, was measured. Briefly, about 50 mg of liver was quantified in cold phosphate buffered saline (PBS) or 0.9% sodium chloride (NaCl) and crushed, followed by treating with mixed solvent of chloroform and methanol (MeOH) in a volume ratio of 2:1 and reacted for 2 hours. […] Thereafter, the amount of neutral fat was measured by absorbance using a neutral fat measurement kit (Stanbio laboratory, TX USA). Since obesity and insulin resistance are representative diseases directly related to the development of non-alcoholic fatty liver, the improvement effect of Compound 70c on fatty liver was analyzed. […] First, the accumulation of fat in the liver, the most representative phenotype, was measured. Briefly, about 50 mg of liver was quantified in cold phosphate buffered saline (PBS) or 0.9% sodium chloride (NaCl) and crushed, followed by treating with mixed solvent of chloroform and methanol (MeOH) in a volume ratio of 2:1 and reacted for 2 hours. […]

[4] = test system: FASN, ACC, SREBP-1a, SREBP-1c and SREBP-2; assay: Liver mRNA expression of fat synthesis genes, quantitative real-time PCR; format: in vivo, mouse; conditions: db/db mice, oral 5 mg/kg daily for 4 weeks
Procedure: as §1

skin fibroblasts = assay: β-galactosidase staining of UVB-induced cell aging; format: cell-based; conditions: UVB of 12 mJ/cm^2; pretreated at 1 µM for 24 hours
Procedure: β-galactosidase is used to induce cellular aging of fibroblasts, which are the main cells of the epidermal layer of skin, by using UVB, the most important environmental factor in skin aging, as the most common marker for cell aging and β-galactosidase staining was performed to analyze the cell aging protection of Compound 32u. […]

| SMILES | expression of fat oxidation related genes (CPT1 and ACOX1) (CPT1 and ACOX1) | dietary intake (db/db mice [1]) | weight (db/db mice [1]) | fasting blood glucose (db/db mice [2]) | glucose tolerance (blood glucose concentration) (db/db mice [2]) | neutral fat in the liver (db/db mice [3]) | expression of fat synthesis genes (FASN, ACC, SREBP-1a, SREBP-1c and SREBP-2) [4] | β-galactosidase staining (skin fibroblasts) |
| --- | --- | --- | --- | --- | --- | --- | --- | --- |
| Cl.O=C(Nc1ccccc1-c1cc2ccc(CN3CCNCC3)cc2o1)c1ccc2ccccc2c1 [Compound 32u, N-(2-(6-(Piperazin-1-ylmethyl)benzofuran-2-yl)phenyl)-2-naphthamide hydrochloride] | not significantly different | no difference | no difference | reduced | glucose tolerance was restored | reduced neutral fat | significantly reduced | reduced |
| O=C(Nc1ccccc1-c1nc2cc(CN3CCN(C4CCCCC4)CC3)ccc2o1)c1ccc2ccccc2c1 [Compound 70c, N-(2-(5-((4-Cyclohexylpiperazin-1-yl)methyl)benzo[d]oxazol-2-yl)phenyl)-2-naphthamide] | not significantly different | no difference | no difference | reduced | glucose tolerance was restored | reduced neutral fat | significantly reduced | reduced |
